Drawing on patent US12116388B2, “Amylin receptor agonists” (Novo Nordisk A/S, priority 2022, dated 2024), this text covers EC50 for three molecules.

Assay [1] addresses T1, human amylin receptor (hAMYR3) (Homo sapiens, UniProt O60896+P30988).
T1 construct: host or cells: BHK (Baby Hamster Kidney), Hollex-1 cell line further transfected with RAMP3
In words: Human amylin receptor (hAMYR3) in vitro potency assay, CRE-luciferase reporter in BHK cells. Format: cell-based. The conditions noted are these: BHK hAMYR3/CRE-Luc cells, 3 hours incubation, assay buffer with 1% ovalbumin. The text has this: Activation of hAMYR3 leads to increased cellular concentrations of cAMP. Consequently, transcription is activated by promotors containing multiple copies of the CAMP response element (CRE). It is thus possible to measure hAMYR3 activity using a CRE-luciferase reporter gene introduced into Baby Hamster Kidney (BHK) cells co-expressing the hAMYR3.
A BHK cell line was stably transfected with the human calcitonin receptor (a) and a CRE-responsive luciferase (CRE-Luc) reporter gene according to methods known to the person skilled in the art (Hollex-1 cell line, obtained from Zymogenetics described in U.S. Pat. No. 5,622,839). The cell line was further transfected with human receptor modifying protein 3 (RAMP3) using standard methods. This turns the human calcitonin receptor into a human amylin-3(a) receptor.
(§1) Cells stocks were prepared by culturing of the stably transfected BHK hAMYR3/CRE-Luc cell line in growth medium consisting of DMEM (Gibco, 31966-021) supplemented with 10% FBS (Gibco, 16140-071), 1% Pen/Strep (Gibco, 15140-122), 0.5 mg/mL Geneticin (Gibco, 10131-027), 0.4 mg/mL Hygromycin (Invitrogen, 10687010) and 250 nM Methotrexate (Sigma, A6770). Cells at approximately 80-90% confluence were washed once with PBS (Gibco 14190-094) and loosened from the cell flasks with Versene (Gibco, 15040-033) or TrypLE™ (Gibco, 12605-010). After centrifugation, the cell pellet was dissolved and diluted to approximately 2.5×10E6 cells/mL in Recovery™ Cell Culture Freezing Medium (Gibco, 12648-010). Cells were aliquoted and stored at −180° C. until use.
(§2) The assay buffer consisted of DMEM without phenol red (Gibco, 11880-028) supplemented with 1× GlutaMAX (Gibco, 35050-038), 10 mM HEPES (Gibco, 15630-056) and 1% (w/v) ovalbumin (Sigma, A5503).
(§3) To perform the assay, BHK hAMYR3/CRE-Luc cells were thawed, washed once in PBS and seeded in 40 μL growth medium in a white 384-well culture plate (PerkinElmer, 6007688) at a cell density of 4.000 cells/well on the day before the experiment. The plate was incubated over night at 37° C. in 5% CO2. On the day of the assay, cells were washed once in assay buffer. Serial dilutions (7-fold dilutions, 7 concentrations Pr. compound and one well containing only assay buffer) of comparator compounds and amylin analogues were performed in assay buffer often starting from approximately 10 nM in 96-well plates and 30 μL of each concentration added to the 384-well assay plate with cells. The assay plate was incubated for 3 hours at 37° C. in 5% CO2 after which 30 μL SteadyLite Plus (PerkinElmer, 6066759) was added to each well. The assay plate was sealed, incubated at room temperature with gentle shaking for 5 minutes followed by 30 minutes incubation without shaking while protected from light. Luminescence was detected on a luminescence plate reader e.g. a Synergy 2 (BioTek).

Assay [2] has as its target T2, human calcitonin receptor (hCTR) (Homo sapiens, UniProt P30988).
T2 construct: host or cells: BHK (Baby Hamster Kidney), Hollex-1 cell line
T2 sequence (P30988 25-474): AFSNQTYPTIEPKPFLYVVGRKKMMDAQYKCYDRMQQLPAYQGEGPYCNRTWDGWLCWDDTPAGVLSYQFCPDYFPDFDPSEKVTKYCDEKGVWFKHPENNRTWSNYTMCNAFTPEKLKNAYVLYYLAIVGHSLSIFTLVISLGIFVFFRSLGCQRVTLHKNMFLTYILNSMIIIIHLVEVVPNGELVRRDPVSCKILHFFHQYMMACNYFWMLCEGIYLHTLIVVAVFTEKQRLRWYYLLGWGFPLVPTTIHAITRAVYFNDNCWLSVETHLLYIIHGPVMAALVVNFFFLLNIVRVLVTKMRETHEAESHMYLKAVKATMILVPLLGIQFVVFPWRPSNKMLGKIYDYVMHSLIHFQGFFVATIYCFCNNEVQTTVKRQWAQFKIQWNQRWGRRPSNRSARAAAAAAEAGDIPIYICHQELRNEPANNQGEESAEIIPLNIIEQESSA
Kind of assay: Human calcitonin receptor (hCTR) in vitro potency assay, CRE-luciferase reporter in BHK cells. Format: cell-based. The conditions noted are these: BHK hCTR/CRE-Luc cells, 3 hours incubation, assay buffer with 1% ovalbumin; read-out: hCalcR potency, EC50.
Excerpt: Activation of hCTR leads to increased cellular concentrations of CAMP. Consequently, transcription is activated by promotors containing multiple copies of the CAMP response element (CRE). It is thus possible to measure hCTR activity using a CRE-luciferase reporter gene introduced into Baby Hamster Kidney (BHK) cells co-expressing the hCTR.
A BHK cell line was stably transfected with the human calcitonin receptor (a) and a CRE-responsive luciferase (CRE-Luc) reporter gene according to methods known to the person skilled in the art (Hollex-1 cell line, obtained from Zymogenetics described in U.S. Pat. No. 5,622,839).
as §1, with “hCTR/CRE-Luc” for “hAMYR3/CRE-Luc”, “10131-027)” for “10131-027), 0.4 mg/mL Hygromycin (Invitrogen, 10687010)”
as §2
as §3, with “hCTR/CRE-Luc” for “hAMYR3/CRE-Luc”

For orientation: EC50 means the concentration needed to bring the measured effect to its halfway point.

Starred links: 1 amine or outer side, 2 acyl side, 3 side chain; linkers in the order of their positions; H or OH if unused. Residues, ends and D or L forms follow the SMILES beside them. *: point of attachment. C18 diacid = O=C(O)CCCCCCCCCCCCCCCCC(=O)*; γGlu = O=C(O)[C@H](CCC(=O)[*:2])N[*:1]

T1 sequence (O60896 24-148, one chain of several): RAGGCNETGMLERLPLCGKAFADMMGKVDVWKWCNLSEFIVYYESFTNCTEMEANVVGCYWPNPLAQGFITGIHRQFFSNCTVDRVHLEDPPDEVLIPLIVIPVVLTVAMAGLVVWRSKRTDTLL

Take `CC[C@H](C)[C@H](NC(=O)[C@H](C)NC(=O)CNC(=O)[C@H](Cc1ccccc1)NC(=O)[C@@H]1CCCN1C(=O)[C@H](CC(=O)O)NC(=O)[C@H](CO)NC(=O)[C@H](CO)NC(=O)[C@H](Cc1c[nH]cn1)NC(=O)[C@H](Cc1c[nH]cn1)NC(=O)[C@H](CC(C)C)NC(=O)[C@H](Cc1ccccc1)NC(=O)[C@H](CCC(=O)O)NC(=O)[C@H](C)NC(=O)[C@H](CC(C)C)NC(=O)[C@H](CCCNC(=N)N)NC(=O)[C@H](CCC(N)=O)NC(=O)[C@@H](NC(=O)[C@H](CCC(N)=O)NC(=O)[C@H](C)NC(=O)[C@@H](NC(=O)[C@H](C)NC(=O)[C@H](CC(C)C)NC(=O)[C@H](CC(N)=O)NC(=O)[C@H](CO)NC(=O)[C@H](C)NC(=O)CC[C@H](NC(=O)CCCCCCCCCCCCCCCCC(=O)O)C(=O)O)[C@@H](C)O)[C@@H](C)O)C(=O)N1CCC[C@H]1C(=O)N[C@@H](CO)C(=O)N[C@@H](CO)C(=O)N[C@H](C(=O)N[C@@H](CC(=O)O)C(=O)N[C@H](C(=O)NCC(=O)N1CCC[C@H]1C(=O)N[C@@H](CC(=O)O)C(=O)N[C@H](C(=O)N1CCC[C@H]1C(N)=O)[C@@H](C)O)C(C)C)[C@@H](C)O` [Compound 12, N^1-[(4S)-4-carboxy-4-(17-carboxyheptadecanoylamino)butanoyl]-[Ala1,Ser2,Leu4,Ala7,Gln8,Glu14,His17,Asp21,Pro22,Pro27,Asp31,Pro34,Asp35,Pro37]-human amylin] ({C18 diacid-γGlu}-ASNLATAQTQRLAEFLHHSSDPFGAIPSSTDVGPDTP-NH2): the EC50 in assay [1] was 1.88 pM; in assay [2], 1.99 pM.
Turning to `CC[C@H](C)[C@H](NC(=O)[C@@H]1CCCN1C(=O)CNC(=O)[C@H](Cc1ccccc1)NC(=O)[C@H](Cc1c[nH]cn1)NC(=O)[C@H](Cc1c[nH]cn1)NC(=O)[C@H](CC(C)C)NC(=O)[C@H](Cc1ccccc1)NC(=O)[C@H](CCC(=O)O)NC(=O)[C@H](C)NC(=O)[C@H](CC(C)C)NC(=O)[C@H](CCCNC(=N)N)NC(=O)[C@H](CCC(N)=O)NC(=O)[C@@H](NC(=O)[C@H](CCC(N)=O)NC(=O)[C@H](C)NC(=O)[C@@H](NC(=O)[C@H](CO)NC(=O)[C@H](CC(C)C)NC(=O)[C@H](CO)NC(=O)CNC(=O)[C@H](C)NC(=O)CC[C@H](NC(=O)CC[C@H](NC(=O)CCCCCCCCCCCCCCCCC(=O)O)C(=O)O)C(=O)O)[C@@H](C)O)[C@@H](C)O)C(=O)N[C@@H](CC(C)C)C(=O)N1CCC[C@H]1C(=O)N1CCC[C@H]1C(=O)N[C@H](C(=O)N[C@@H](CC(=O)O)C(=O)N[C@H](C(=O)NCC(=O)N[C@@H](CO)C(=O)N[C@@H](CCC(=O)O)C(=O)N[C@H](C(=O)N1CCC[C@H]1C(N)=O)[C@@H](C)O)C(C)C)[C@@H](C)O` [Compound 30, N^1-[(4S)-4-carboxy-4-[[(4S)-4-carboxy-4-(17-carboxyheptadecanoylamino)butanoyl]amino]butanoyl]-[Ala1,Gly2,Ser3,Leu4,Ser5,Ala7,Gln8,Glu14,His17,Pro25,Pro28,Pro29,Asp31,Glu35,Pro37],des-(19-22)-human amylin] ({C18 diacid-γGlu-γGlu}-AGSLSTAQTQRLAEFLHHFGPILPPTDVGSETP-NH2), the EC50 in assay [1] was 2.37 pM; in assay [2], 2.07 pM.
Taken in the same sequence, the figures for `CC[C@H](C)[C@H](NC(=O)[C@@H]1CCCN1C(=O)CNC(=O)[C@H](Cc1ccccc1)NC(=O)[C@H](Cc1c[nH]cn1)NC(=O)[C@H](Cc1c[nH]cn1)NC(=O)[C@H](CC(C)C)NC(=O)[C@H](Cc1ccccc1)NC(=O)[C@H](CCC(=O)O)NC(=O)[C@H](C)NC(=O)[C@H](CC(C)C)NC(=O)[C@H](CCCNC(=N)N)NC(=O)[C@H](C)NC(=O)[C@@H](NC(=O)[C@H](CCC(N)=O)NC(=O)[C@H](C)NC(=O)[C@@H](NC(=O)[C@H](CO)NC(=O)[C@H](CC(C)C)NC(=O)[C@H](Cc1c[nH]cn1)NC(=O)[C@H](CO)NC(=O)[C@H](C)NC(=O)CC[C@H](NC(=O)CCCCCCCCCCCCCCCCC(=O)O)C(=O)O)[C@@H](C)O)[C@@H](C)O)C(=O)N[C@@H](CC(C)C)C(=O)N1CCC[C@H]1C(=O)N1CCC[C@H]1C(=O)N[C@H](C(=O)N[C@@H](CC(=O)O)C(=O)N[C@H](C(=O)NCC(=O)N[C@@H](CO)C(=O)N[C@@H](CCC(=O)O)C(=O)N[C@H](C(=O)N[C@@H](Cc1ccc(O)cc1)C(N)=O)[C@@H](C)O)C(C)C)[C@@H](C)O` [Compound 42, N^1-[(4S)-4-carboxy-4-(17-carboxyheptadecanoylamino)butanoyl]-[Ala1,Ser2,His3,Leu4,Ser5,Ala7,Gln8,Ala10,Glu14,His17,Pro25,Pro28,Pro29,Asp31,Glu35],des-(19-22)-human amylin] ({C18 diacid-γGlu}-ASHLSTAQTARLAEFLHHFGPILPPTDVGSETY-NH2) were 2.11 pM and 2.78 pM.
